Assay results published in ChEMBL document CHEMBL1909046, “DrugMatrix in vitro pharmacology data”.
*1 amine or outer side, *2 acyl side, *3 side chain or, on linkers, in order; H or OH if unused. Where a SMILES comes first, the peptide text is derived from it. Bridges are numbered along the chain shown (N, C = ends). Roman numbers before positions name the chains, in order. [ ]: non-standard residue; d: D form. Actinocin(1to9) = Cc1c2oc3c(C)ccc(C(=O)[*:2])c3nc-2c(C(=O)[*:1])c(N)c1=O; NMeV = CN[C@H](C(=O)O)C(C)C; Sar = CNCC(=O)O

Columns and labels:
[1] = biological target: T1, Neuropeptide Y receptor type 2 (Homo sapiens, UniProt P49146); type: cell membranes, Membrane; details: kan-ts; note: in other assays of this panel Not Active means under 50% inhibition at 10 µM
T1 sequence (P49146 whole entry): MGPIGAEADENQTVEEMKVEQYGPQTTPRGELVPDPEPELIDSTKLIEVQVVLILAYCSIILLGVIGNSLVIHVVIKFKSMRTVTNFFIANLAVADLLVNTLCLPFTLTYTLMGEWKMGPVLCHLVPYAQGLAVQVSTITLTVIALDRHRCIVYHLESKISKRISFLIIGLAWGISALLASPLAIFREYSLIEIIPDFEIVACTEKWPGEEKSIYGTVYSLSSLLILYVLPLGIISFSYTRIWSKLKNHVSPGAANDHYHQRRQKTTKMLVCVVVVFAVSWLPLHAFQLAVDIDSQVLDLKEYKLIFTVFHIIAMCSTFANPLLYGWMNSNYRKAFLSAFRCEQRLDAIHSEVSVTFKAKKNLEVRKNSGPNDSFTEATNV

[2] = DRUGMATRIX: Potassium Channel [KATP] radioligand binding (ligand: [3H] Glyburide); type: cell membranes, Membrane; details: hit-t15; Not Active = under 50% inhibition at 10 µM
[3] = biological target: T2, Vasoactive intestinal polypeptide receptor 1 (Homo sapiens, UniProt P32241); type: cell membranes, Membrane; details: ht-29; note: in other assays of this panel Not Active means under 50% inhibition at 10 µM
T2 sequence (P32241 whole entry): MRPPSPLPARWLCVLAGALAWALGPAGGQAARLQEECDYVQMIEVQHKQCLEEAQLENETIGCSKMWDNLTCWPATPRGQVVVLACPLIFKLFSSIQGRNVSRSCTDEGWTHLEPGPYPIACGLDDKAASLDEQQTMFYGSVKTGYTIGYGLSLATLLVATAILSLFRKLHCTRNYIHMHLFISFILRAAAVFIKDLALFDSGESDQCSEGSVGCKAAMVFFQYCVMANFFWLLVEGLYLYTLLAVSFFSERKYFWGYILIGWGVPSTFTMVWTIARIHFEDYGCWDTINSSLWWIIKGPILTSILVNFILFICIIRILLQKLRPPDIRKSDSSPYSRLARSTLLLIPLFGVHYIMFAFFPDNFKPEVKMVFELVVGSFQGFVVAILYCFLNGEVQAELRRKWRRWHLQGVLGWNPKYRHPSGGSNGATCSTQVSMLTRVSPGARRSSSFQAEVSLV

[4] = biological target: Delta-type opioid receptor (Homo sapiens, UniProt P41143); type: cell membranes, HEK293, Membrane; details: hek293; note: in other assays of this panel Not Active means under 50% inhibition at 10 µM
[5] = biological target: T3, Caspase-1 (Homo sapiens, UniProt P29466); parameters: species or system Escherichia coli;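 note: Caspase-1 enzyme inhibition assay with a peptide substrate; in other assays of this panel Not Active means under 50% inhibition at 10 µM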
T3 sequence (P29466 whole entry): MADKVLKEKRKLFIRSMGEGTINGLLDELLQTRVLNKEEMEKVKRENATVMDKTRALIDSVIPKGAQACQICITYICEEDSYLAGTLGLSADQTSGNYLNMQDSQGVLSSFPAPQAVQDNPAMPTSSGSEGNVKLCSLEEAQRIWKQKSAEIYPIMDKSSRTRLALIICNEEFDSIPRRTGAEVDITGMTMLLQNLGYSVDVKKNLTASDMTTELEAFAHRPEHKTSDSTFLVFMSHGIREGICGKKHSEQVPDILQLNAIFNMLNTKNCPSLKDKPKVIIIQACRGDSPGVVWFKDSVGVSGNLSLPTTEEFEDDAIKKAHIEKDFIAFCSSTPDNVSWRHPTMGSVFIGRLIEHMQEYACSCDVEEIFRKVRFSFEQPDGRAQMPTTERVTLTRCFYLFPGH

[6] = biological target: T4, Alpha-2C adrenergic receptor (Homo sapiens, UniProt P18825); assay: DRUGMATRIX: Adrenergic Alpha-2C radioligand binding (ligand: [3H] MK-912); type: cell membranes, Sf9, Membrane; details: sf9
T4 sequence (P18825 whole entry): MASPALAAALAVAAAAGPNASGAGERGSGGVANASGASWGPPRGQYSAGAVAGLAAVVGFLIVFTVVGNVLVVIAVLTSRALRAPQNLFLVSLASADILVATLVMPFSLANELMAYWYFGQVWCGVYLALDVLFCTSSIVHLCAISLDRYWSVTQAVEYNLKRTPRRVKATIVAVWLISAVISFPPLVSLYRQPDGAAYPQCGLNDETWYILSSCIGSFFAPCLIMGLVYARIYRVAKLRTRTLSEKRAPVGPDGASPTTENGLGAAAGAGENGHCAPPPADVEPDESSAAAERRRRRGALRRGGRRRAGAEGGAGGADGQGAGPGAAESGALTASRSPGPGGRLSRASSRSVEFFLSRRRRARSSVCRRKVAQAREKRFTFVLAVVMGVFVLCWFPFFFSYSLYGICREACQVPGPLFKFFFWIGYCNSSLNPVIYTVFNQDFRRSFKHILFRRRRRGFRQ

[7] = biological target: Insulin receptor (Rattus norvegicus, UniProt P15127); type: cell membranes, Wistar, Liver, Membrane; note: in other assays of this panel Not Active means under 50% inhibition at 10 µM
[8] = DRUGMATRIX: GABAA, Muscimol, Central radioligand binding (ligand: [3H] Muscimol); type: cell membranes, Rattus norvegicus, Wistar, Brain, Membrane; details: Not Active = under 50% inhibition at 10 µM

Sequence of Insulin receptor (P15127 27-759 limits assumed): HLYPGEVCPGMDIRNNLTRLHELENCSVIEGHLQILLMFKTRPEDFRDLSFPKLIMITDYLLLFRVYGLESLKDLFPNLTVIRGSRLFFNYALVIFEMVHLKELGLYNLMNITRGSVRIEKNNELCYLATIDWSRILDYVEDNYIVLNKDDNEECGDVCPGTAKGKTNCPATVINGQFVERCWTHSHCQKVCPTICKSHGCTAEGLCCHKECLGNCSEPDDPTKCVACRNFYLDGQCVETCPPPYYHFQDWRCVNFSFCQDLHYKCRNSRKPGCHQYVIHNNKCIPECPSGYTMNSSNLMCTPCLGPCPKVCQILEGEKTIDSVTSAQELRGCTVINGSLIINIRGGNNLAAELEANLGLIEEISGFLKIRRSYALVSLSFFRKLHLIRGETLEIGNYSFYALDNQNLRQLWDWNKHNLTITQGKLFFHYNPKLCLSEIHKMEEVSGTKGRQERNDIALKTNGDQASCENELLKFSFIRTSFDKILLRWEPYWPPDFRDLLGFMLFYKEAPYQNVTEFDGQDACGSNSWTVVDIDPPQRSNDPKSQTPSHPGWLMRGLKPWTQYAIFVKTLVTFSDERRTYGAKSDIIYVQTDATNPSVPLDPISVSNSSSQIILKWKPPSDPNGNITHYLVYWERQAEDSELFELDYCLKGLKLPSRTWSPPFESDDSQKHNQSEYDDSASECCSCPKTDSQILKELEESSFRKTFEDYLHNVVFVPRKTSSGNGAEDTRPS
Sequence of Insulin receptor (P15127 764-1383 limits assumed): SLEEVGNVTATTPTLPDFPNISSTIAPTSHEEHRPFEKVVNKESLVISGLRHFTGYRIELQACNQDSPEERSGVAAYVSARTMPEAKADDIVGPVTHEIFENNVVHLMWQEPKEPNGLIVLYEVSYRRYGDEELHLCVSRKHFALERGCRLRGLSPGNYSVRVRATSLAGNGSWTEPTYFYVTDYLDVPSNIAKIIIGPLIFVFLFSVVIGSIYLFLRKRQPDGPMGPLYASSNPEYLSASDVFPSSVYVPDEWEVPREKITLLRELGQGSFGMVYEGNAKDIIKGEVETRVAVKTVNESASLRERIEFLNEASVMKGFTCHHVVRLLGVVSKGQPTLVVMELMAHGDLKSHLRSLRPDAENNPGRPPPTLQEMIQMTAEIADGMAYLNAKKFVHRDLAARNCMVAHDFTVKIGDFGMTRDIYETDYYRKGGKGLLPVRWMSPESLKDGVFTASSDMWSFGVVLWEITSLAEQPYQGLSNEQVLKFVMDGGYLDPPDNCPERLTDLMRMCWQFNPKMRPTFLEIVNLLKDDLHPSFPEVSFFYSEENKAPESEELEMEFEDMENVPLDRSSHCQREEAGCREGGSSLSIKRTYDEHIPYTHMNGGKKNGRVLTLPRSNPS
Sequence of Delta-type opioid receptor (P41143 whole entry): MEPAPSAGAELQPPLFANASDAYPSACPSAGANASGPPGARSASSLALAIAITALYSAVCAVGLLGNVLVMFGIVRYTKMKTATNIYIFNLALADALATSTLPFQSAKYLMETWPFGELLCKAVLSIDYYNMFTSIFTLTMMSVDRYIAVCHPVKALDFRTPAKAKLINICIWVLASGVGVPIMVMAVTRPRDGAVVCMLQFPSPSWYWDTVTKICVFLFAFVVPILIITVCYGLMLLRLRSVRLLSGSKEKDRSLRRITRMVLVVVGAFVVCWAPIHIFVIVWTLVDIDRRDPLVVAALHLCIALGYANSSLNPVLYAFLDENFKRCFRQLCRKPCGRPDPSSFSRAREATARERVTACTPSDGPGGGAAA

Cc1ccc2cc3c(ccc4ccccc43)c3c2c1CC3 [3-METHYLCHOLANTHRENE]
Not Active: IC50 [1] | IC50 [2] | Ki [2] | IC50 [3] | IC50 [4] | IC50 [5] | IC50 [6] | IC50 [7] | IC50 [8] | Ki [8]

Nc1nc2c(ncn2CCC(CO)CO)c(=O)[nH]1 [PENCICLOVIR]
Not Active: IC50 [1] | IC50 [2] | Ki [2] | IC50 [3] | IC50 [4] | IC50 [5] | IC50 [6] | IC50 [7] | IC50 [8] | Ki [8]

CN(C)C(=O)Oc1cc(OC(=O)N(C)C)cc(C(O)CNC(C)(C)C)c1 (stereo not given) [BAMBUTEROL]
Not Active: IC50 [1] | IC50 [2] | Ki [2] | IC50 [3] | IC50 [4] | IC50 [5] | IC50 [6] | IC50 [7] | IC50 [8] | Ki [8]

Nc1nc(N)nc(-c2cc(Cl)ccc2Cl)n1.O=C(O)/C=C\C(=O)O [IRSOGLADINE MALEATE]
Not Active: IC50 [1] | IC50 [2] | Ki [2] | IC50 [3] | IC50 [4] | IC50 [5] | IC50 [6] | IC50 [7] | IC50 [8] | Ki [8]

Cc1ccc(-c2cc(C(F)(F)F)nn2-c2ccc(S(N)(=O)=O)cc2)cc1 [CELECOXIB]
Not Active: IC50 [1] | IC50 [2] | Ki [2] | IC50 [3] | IC50 [4] | IC50 [5] | IC50 [6] | IC50 [7] | IC50 [8] | Ki [8]

CCC1(c2ccc(N)cc2)CCC(=O)NC1=O (stereo not given) [AMINOGLUTETHIMIDE]
Not Active: IC50 [1] | IC50 [2] | Ki [2] | IC50 [3] | IC50 [4] | IC50 [5] | IC50 [6] | IC50 [7] | IC50 [8] | Ki [8]

Cc1ccc(/N=C/N(C)/C=N/c2ccc(C)cc2C)c(C)c1 [AMITRAZ]
Not Active: IC50 [1] | IC50 [2] | Ki [2] | IC50 [3] | IC50 [4] | IC50 [5] | IC50 [6] | IC50 [7] | IC50 [8] | Ki [8]

C[C@H](CS)C(=O)N1CCC[C@H]1C(=O)O [CAPTOPRIL]
Not Active: IC50 [1] | IC50 [2] | Ki [2] | IC50 [3] | IC50 [4] | IC50 [5] | IC50 [6] | IC50 [7] | IC50 [8] | Ki [8]

Clc1cccc(Cl)c1NC1=NCCN1 [CLONIDINE]
Not Active: IC50 [1] | IC50 [2] | Ki [2] | IC50 [3] | IC50 [4] | IC50 [5] | IC50 [6] | IC50 [7] | IC50 [8] | Ki [8]

CCCCN1CCCC[C@H]1C(=O)Nc1c(C)cccc1C [LEVOBUPIVACAINE]
Not Active: IC50 [1] | IC50 [2] | Ki [2] | IC50 [3] | IC50 [4] | IC50 [5] | IC50 [6] | IC50 [7] | IC50 [8] | Ki [8]

OC(Cn1cncn1)(Cn1cncn1)c1ccc(F)cc1F [FLUCONAZOLE]
Not Active: IC50 [1] | IC50 [2] | Ki [2] | IC50 [3] | IC50 [4] | IC50 [5] | IC50 [6] | IC50 [7] | IC50 [8] | Ki [8]

CCCC1O[C@@H]2C[C@H]3[C@@H]4CCC5=CC(=O)C=C[C@]5(C)[C@H]4[C@@H](O)C[C@]3(C)[C@]2(C(=O)CO)O1 (stereo not given in full) [BUDESONIDE]
Not Active: IC50 [1] | IC50 [2] | Ki [2] | IC50 [3] | IC50 [4] | IC50 [5] | IC50 [6] | IC50 [7] | IC50 [8] | Ki [8]

Cc1cc(C2CCCCC2)n(O)c(=O)c1 [CICLOPIROX]
Not Active: IC50 [1] | IC50 [2] | Ki [2] | IC50 [3] | IC50 [4] | IC50 [5] | IC50 [6] | IC50 [7] | IC50 [8] | Ki [8]

Cc1c(C)c2c(c(C)c1O)CC[C@@](C)(CCC[C@H](C)CCC[C@H](C)CCCC(C)C)O2 [ALPHA-TOCOPHEROL]
Not Active: IC50 [1] | IC50 [2] | Ki [2] | IC50 [3] | IC50 [4] | IC50 [5] | IC50 [6] | IC50 [7] | IC50 [8] | Ki [8]

Cc1c2oc3c(C)ccc(C(=O)N[C@@H]4C(=O)N[C@H](C(C)C)C(=O)N5CCC[C@H]5C(=O)N(C)CC(=O)N(C)[C@@H](C(C)C)C(=O)O[C@@H]4C)c3nc-2c(C(=O)N[C@@H]2C(=O)N[C@H](C(C)C)C(=O)N3CCC[C@H]3C(=O)N(C)CC(=O)N(C)[C@@H](C(C)C)C(=O)O[C@@H]2C)c(N)c1=O [DACTINOMYCIN] (I: T[dV]P[Sar][NMeV] / II: T[dV]P[Sar][NMeV]; ester I:1-I:C, II:1-II:C; linker I:N-II:N via Actinocin(1to9))
Not Active: IC50 [1] | IC50 [2] | Ki [2] | IC50 [3] | IC50 [4] | IC50 [5] | IC50 [6] | IC50 [7] | IC50 [8] | Ki [8]

CC1(C)S[C@@H]2[C@H](NC(=O)Cc3ccccc3)C(=O)N2[C@H]1C(=O)O [PENICILLIN G]
Not Active: IC50 [1] | IC50 [2] | Ki [2] | IC50 [3] | IC50 [4] | IC50 [5] | IC50 [6] | IC50 [7] | IC50 [8] | Ki [8]

C[C@H](CCC(=O)O)[C@H]1CC[C@H]2[C@@H]3[C@H](O)C[C@@H]4C[C@H](O)CC[C@]4(C)[C@H]3C[C@H](O)[C@]12C [CHOLIC ACID]
Not Active: IC50 [1] | IC50 [2] | Ki [2] | IC50 [3] | IC50 [4] | IC50 [5] | IC50 [6] | IC50 [7] | IC50 [8] | Ki [8]

CN(Cc1ccc(C(C)(C)C)cc1)Cc1cccc2ccccc12 [BUTENAFINE]
Not Active: IC50 [1] | IC50 [2] | Ki [2] | IC50 [3] | IC50 [4] | IC50 [5] | IC50 [6] | IC50 [7] | IC50 [8] | Ki [8]

N=C(N)NCCN1CCCCCCC1 [GUANETHIDINE]
Not Active: IC50 [1] | IC50 [2] | Ki [2] | IC50 [3] | IC50 [4] | IC50 [5] | IC50 [6] | IC50 [7] | IC50 [8] | Ki [8]
